The text below walks through data of article PMC8269107, “Lipidation of Temporin-1CEb Derivatives as a Tool for Activity Improvement, Pros and Cons of the Approach” (International Journal of Molecular Sciences, 2021).

In brackets after ≈: the same amount, converted by molar mass. Where a SMILES comes first, the peptide text is derived from it. [ ]: non-standard residue; d: D form. The star is where a group is joined. Palmitoyl = CCCCCCCCCCCCCCCC(=O)*; Lauroyl = CCCCCCCCCCCC(=O)*; AEEA = NCCOCCOCC(=O)O; βAla = NCCC(=O)O

Test [1] relates to C.albicans CCM 8186. The test is described as follows: MIC, broth microdilution. It is filed as cell-based, Candida albicans. The settings on record: C.albicans CCM 8186, 24 h. The source says: (§1) Escherichia coli (PCM 2057 = ATCC 25922), Staphylococcus aureus (PCM 2054 = ATCC 25923), Staphylococcus epidermidis (PCM 2118 = ATCC 14990), Bacillus subtilis (PCM 2224 = ATCC 9799), Bacillus cereus (PCM 482 = ATCC 10702) and Pseudomonas aeruginosa (PCM 499 = ATCC 10145) were obtained from the Polish Collection of Microorganisms. Fungi strains Candida albicans (CCM 8186 = CNTC 49/64), Candida glabrata (CCM 8270 = ATCC 90030), Candida parapsilosis (CCM 8260 = ATCC 22019) and Candida krusei (CCM 8271 = ATCC 6258) were acquired from the Czech Collection of Microorganisms. S. aureus USA300 (wild type strain), the reference strain of Klebsiella pneumoniae (ATCC 13883) and clinical isolates of Pseudomonas aeruginosa (PA1, PA2) collected from nonrelated patients admitted to the Stefan Zeromski Specialist Municipal Hospital in Krakow (Poland) were kindly provided by the research group of the Department of Microbiology, Faculty of Biochemistry, Biophysics and Biotechnology, Jagiellonian University, Krakow, Poland.
(§2) Luria-Bertani broth (LB) and Sabouraud Dextrose broth (SB) (Biocorp, Poland) were used for cultivation of bacteria and fungi strains, respectively. The antimicrobial activity of the peptides were analyzed through determination of MIC (minimal inhibitory concentration) parameters according to Clinical and Laboratory Standards (CLSI) guidelines developed for aerobic bacteria and yeasts, respectively. Mueller-Hinton broth (MHB) was used as the working medium for all bacterial strains, while in the case of fungi, RPMI-1640 (with L-glutamine, without sodium bicarbonate) growth medium buffered with MOPS (morpholinepropanesulfonic acid) and supplemented with 2% glucose was used. Inoculum was prepared from freshly grown cultures of microorganisms at their exponential phase of growth. […] Plates were then incubated for 24 h at 37 °C in the case of bacteria and at 35 °C in the case of fungi. After that time, absorbance was read at 590 nm with a Perkin Elmer plate reader. Cultures without peptide were treated as positive control, while uninoculated media were defined as negative control. All measurements were run at least in triplicate.
In general terms: In broth dilution the organism is exposed to a series of concentrations in liquid medium.

Test [2] relates to B. cereus PCM 482. The test is described as follows: MIC, broth microdilution. It is filed as cell-based, Bacillus cereus. The conditions noted are these: B. cereus PCM 482, 24 h.
From the text: as §1, §2

The test system of test [3] is keratinocytes (HaCaT). The test is described as follows: Cytotoxicity, MTT assay. It is filed as cell-based, human. The conditions noted are these: Keratinocytes (HaCaT), MTT, 24 h. Here is the method: (§3) Human dermal fibroblasts were obtained as previously reported from biopsies of healthy human skin of three donors undergoing a surgery. All procedures were approved by the Ethics Committee of Medicinal University of Gdansk (NKEBN/483/2011 and NKBBN/745/2019-2020). Immortalized human HaCaT keratinocytes (DKFZ Heidelberg, Germany) were obtained commercially.
(§4) Both types of cell lines were grown in Dulbecco′s Modified Eagle′s Medium (DMEM) (Sigma-Aldrich, Germany), containing […] of glucose, […] of L- glutamine, sodium pyruvate and sodium bicarbonate. Additionally, the medium was supplemented with 10% FCS (fetal calf serum, Sigma-Aldrich, Germany), 100 U/mL of penicillin and 100 μg/mL of streptomycin (Sigma-Aldrich, Germany). The cells were grown in standard culture dishes (BD, USA) in a humidified atmosphere with 5% CO2 at […], and the medium was changed every 2 days.
(§5) The fibroblasts and keratinocytes were seeded at density of 5500 cells per well into 96-well plates suspended in a medium supplemented with 10% FCS. After 24 h from seeding, the media were exchanged with serum- and antibiotic-free DMEM and tested peptides, dissolved in sterile water, which were added, yielding a final concentration ranging from 1 to 50 μg/mL. The cells were then incubated for the next 24 h. At the end of the experiment, the cells were treated with 20 μL of MTT (5 mg/mL in PBS). After 3 h of incubation in the presence of MTT dye, the DMEM medium was discarded and replaced with 6 mM HCl in isopropanol. When the purple crystals of formazan were fully solubilized, absorbance at 570 nm was read.
On the technique in general: Tetrazolium dyes change colour on reduction, which living cells bring about.

Test [4] concerns primary fibroblasts. The test is described as follows: Cytotoxicity, MTT assay. It is filed as cell-based, human. The conditions noted are these: primary Fibroblasts, MTT, 24 h. As to the method:
as §3, §4, §5

The test system of test [5] is C. albicans (CCM 8186) biofilm. The test is described as follows: Biofilm eradication assay, pre-formed 24 h old biofilm (MTT). It is filed as cell-based, Candida albicans. The settings on record: C. albicans pre-formed 24 h old biofilm, 24 h treatment. Here is the method: In the case of yeasts, the overnight culture of C. albicans in Sabouraud dextrose broth (SB) was used for inoculum preparation. Similar to above, 5 mL of 24 h culture was centrifuged, washed with PBS and then suspended in sterile RPMI-1640 medium (with L-glutamine, without sodium bicarbonate) supplemented with 2% glucose (RPMI-1640/+G) yielding the amount of about 1 × 10^7 cells per ml. Subsequently, 200 µL of yeast suspension was transferred into each well of a microtiter plate, and it was incubated stationary for the next 24 h at 35 °C.
After that, each well of the plates containing bacterial or fungi biofilm was washed three times with PBS in order to remove all non-adherent cells. Then, peptide solutions of 200 µL ranging from 50 to 0,39 µg/mL prepared in TSB +/G in the case of experiments on S. aureus biofilm, and (RPMI-1640/+G) in the case of C. alibcans, were prepared and transferred into the microtiter plates. After the addition of the peptides, the experiments were continued for the next 24 h.
The reduction in biofilm viability was analyzed by means of MTT assay. Briefly, 20 μL of MTT solution (5 mg/mL in PBS) was added to prewashed wells with exchanged medium (180 μL of fresh medium) wells containing bacterial/yeast biofilms. Plates were then incubated in the dark for the next 3 h at 37 °C. After that time, the medium was replaced with 6 mM HCl in isopropanol and, when the reduced MTT was fully dissolved, the plates were read at 570 nm. Activity against fully developed 24 h old biofilm was described as biofilm eradication concentration (BEC50 expressed in µg/mL), which corresponded to the concentration of the compound able to reduce 50% of biofilm viability compared with the growth control.

By IC50 is commonly meant the midpoint of a concentration-inhibition curve. A higher IC50 goes with lower potency. Regarding `CCCCCCCCCCCCCCCC(=O)N[C@H](C(=O)N[C@@H](CCCCN)C(=O)N[C@@H](CCCCN)C(=O)N[C@H](C(=O)N[C@@H](CC(C)C)C(=O)N[C@@H](CO)C(=O)N[C@@H](CCCCN)C(=O)N[C@H](C(=O)N[C@@H](CCCCN)C(=O)N[C@@H](CCCCN)C(=O)N[C@@H](CC(C)C)C(=O)N[C@@H](CC(C)C)C(N)=O)[C@@H](C)CC)[C@@H](C)CC)[C@@H](C)CC` [Compound C16-DK5] (Palmitoyl-IKKILSKIKKLL-NH2), the MIC100 in test [1] and in test [2] was more than 50 µg/mL each time. Moreover, the figures for the concentration for half-maximal inhibition (IC50) in test [3] and in test [4] were 5 µg/mL (≈ 3.01 µM) and 7 µg/mL (≈ 4.21 µM), respectively. For the same compound, the BEC50 in test [5] worked out at 12.5 µg/mL.
Consider `CCCCCCCCCCCC(=O)NCCC(=O)N[C@@H](Cc1c[nH]cn1)C(=O)NCCOCCOCC(=O)N[C@H](C(=O)N[C@@H](CCCCN)C(=O)N[C@@H](CCCCN)C(=O)N[C@H](C(=O)N[C@@H](CC(C)C)C(=O)N[C@@H](CO)C(=O)N[C@@H](CCCCN)C(=O)N[C@H](C(=O)N[C@@H](CCCCN)C(=O)N[C@@H](CCCCN)C(=O)N[C@@H](CC(C)C)C(=O)N[C@@H](CC(C)C)C(N)=O)[C@@H](C)CC)[C@@H](C)CC)[C@@H](C)CC` [C12-CAR-PEG-DK5] ({Lauroyl-βAla}-H[AEEA]IKKILSKIKKLL-NH2), for which the MIC100 in test [1] was 12.5 µg/mL (≈ 6.38 µM); in test [2], more than 50 µg/mL. Moreover, the values for the IC50 in test [3] and in test [4] were 10 µg/mL (≈ 5.1 µM) and 12.5 µg/mL (≈ 6.38 µM), respectively. The BEC50 in test [5] is given as 12.5 µg/mL.
